# Test results: ChEMBL document CHEMBL5360530, “Structure activity relationship (SAR) and anticancer activity of pyrrolidine derivatives: Recent developments and future prospects (A review)” (Eur J Med Chem, 2023)
# Square brackets hold non-standard residues; d marks the D form. Peptide text beside a SMILES is read from it. * marks the point of attachment. ξ: configuration not given here. X2 = CC[C@H](C)[C@@H](CN[C@@H](Cc1ccccc1)C(=O)OC)N*; X1 = O=C(OC(C(F)(F)F)C(F)(F)F)*; ξP = O=C(O)C1CCCN1
# Experiments:
# [1] = Cytotoxicity against human Adipose tissue derived mesenchymal stem cell assessed as cell growth inhibition measured after 48 hrs by MTT assay; assay type: toxicity, cell-based; details: adipose tissue derived mesenchymal stem cells
# [2] = system: HCT-116; assay: Anticancer activity against human HCT-116 cells assessed as cell growth inhibition measured after 48 hrs by MTT assay; assay type: functional, cell-based; details: HCT-116, 48 h
# [3] = system: HT-29; assay: Anticancer activity against human HT-29 cells assessed as cell growth inhibition measured after 48 hrs by MTT assay; assay type: functional, cell-based; details: HT-29, 48 h
# [4] = system: A549; assay: Anticancer activity against human A549 cells assessed as cell growth inhibition measured after 72 hrs by CCK-8 assay; assay type: functional, cell-based; details: A549, 72 h
# [5] = system: MDA-MB-231; assay: Anticancer activity against human MDA-MB-231 cells assessed as cell growth inhibition measured after 72 hrs by CCK-8 assay; assay type: functional, cell-based; details: MDA-MB-231, 72 h
# [6] = system: HCT-116; assay: Anticancer activity against human HCT-116 cells assessed as cell growth inhibition measured after 72 hrs by CCK-8 assay; assay type: functional, cell-based; details: HCT-116, 72 h
# [7] = system: SH-SY5Y; assay: Anticancer activity against human SH-SY5Y cells assessed as cell death upto 1000 ug/ml measured upto 72 hrs by MTT assay relative to control; assay type: functional; details: dose <= 1000 µg/ml, up to 1000 µg/mL
# [8] = system: HT-29; assay: Anticancer activity against human HT-29 cells assessed as cell death upto 1000 ug/ml measured upto 72 hrs by MTT assay relative to control; assay type: functional; details: dose <= 1000 µg/ml, up to 1000 µg/mL
# [9] = system: P388; assay: Anticancer activity against P388 cells assessed as cell growth inhibition; assay type: functional, cell-based; details: Mus musculus
# [10] = system: MCF7; assay: Anticancer activity against human MCF7 cells assessed as cell growth inhibition at 50 uM measured after 48 hrs by MTT assay relative to control; assay type: functional
# [11] = system: COS-7; assay: Anticancer activity against COS-7 cells assessed as cell growth inhibition at 50 uM measured after 48 hrs by MTT assay relative to control; assay type: functional; details: Chlorocebus aethiops
# [12] = system: A549; assay: Anticancer activity against human A549 cells assessed as cell growth inhibition measured after 24 hrs by MTT assay; assay type: functional, cell-based; details: A549, 24 h
# [13] = system: A549; assay: Anticancer activity against human A549 cells assessed as cell growth inhibition by MTT assay; assay type: functional, cell-based
# [14] = system: Jurkat; assay: Anticancer activity against human Jurkat cells assessed as cell growth inhibition measured after 48 hrs by MTT assay; assay type: functional, cell-based
# [15] = system: MCF7; assay: Anticancer activity against human MCF7 cells assessed as cell growth inhibition by MTT assay; assay type: functional, cell-based
# [16] = system: MCF7; assay: Anticancer activity against human MCF7 cells assessed as cell growth inhibition measured after 48 hrs by MTT assay; assay type: functional, cell-based; details: MCF7, 48 h
# [17] = system: K562; assay: Anticancer activity against human K562 cells assessed as cell growth inhibition measured after 48 hrs by MTT assay; assay type: functional, cell-based; details: K562, 48 h
# [18] = system: HT-29; assay: Anticancer activity against human HT-29 cells xenografted with BALB/c mouse assessed as tumor growth inhibition at 50 mg/kg, iv measured twice daily for 20 days relative to control; assay type: functional; details: HT-29, 480 h, time 20 day, read-out: TGI
# [19] = system: HT-29; assay: Anticancer activity against human HT-29 cells xenografted with BALB/c mouse assessed as tumor growth inhibition at 50 mg/kg, po measured twice daily for 20 days relative to control; assay type: functional; details: HT-29, 480 h, time 20 day, read-out: TGI
# [20] = system: K562; assay: Anticancer activity against human K562 cells assessed as cell growth inhibition measured after 48 hrs by WST-1 assay; assay type: functional, cell-based; details: K562, 48 h
# [21] = system: MCF7; assay: Anticancer activity against human MCF7 cells assessed as cell growth inhibition measured after 48 hrs by WST-1 assay; assay type: functional, cell-based; details: MCF7, 48 h
# [22] = system: M-HeLa; assay: Anticancer activity against human HelaM cells assessed as cell growth inhibition measured after 24 hrs by DAPI and propidium iodide staining based assay; assay type: functional
# [23] = Cytotoxicity against human Chang liver cells assessed as cell growth inhibition measured after 24 hrs by DAPI and propidium iodide staining based assay; assay type: toxicity
# [24] = system: M-HeLa; assay: Induction of apoptosis in human HelaM cells upto 100 uM measured after 24 hrs relative to control; assay type: functional; details: up to 100 µM
# [25] = system: A549; assay: Anticancer activity against human A549 cells assessed as cell viability at 50 ug/ml measured after 24 hrs by MTT assay relative to control; assay type: functional; details: read-out: Activity
# [26] = system: A549; assay: Anticancer activity against human A549 cells assessed as cell viability at 100 ug/ml measured after 24 hrs by MTT assay relative to control; assay type: functional; details: read-out: Activity
# [27] = system: A549; assay: Anticancer activity against human A549 cells assessed as cell viability measured after 24 hrs by MTT assay; assay type: functional, cell-based; details: A549, 24 h
# [28] = system: HeLa; assay: Anticancer activity against human HeLa cells assessed as cell growth inhibition measured after 48 hrs by MTT assay; assay type: functional, cell-based
# [29] = system: MCF7; assay: Anticancer activity against human MCF7 cells assessed as cell growth inhibition measured after 24 hrs by SRB assay; assay type: functional, cell-based; details: MCF7, 24 h
# [30] = system: HepG2; assay: Anticancer activity against human HepG2 cells assessed as cell growth inhibition measured after 24 hrs by SRB assay; assay type: functional, cell-based; details: HepG2, 24 h
# [31] = system: HCT-116; assay: Anticancer activity against human HCT-116 cells assessed as cell growth inhibition measured after 24 hrs by SRB assay; assay type: functional, cell-based; details: HCT-116, 24 h
# [32] = system: HT-29; assay: Anticancer activity against human HT-29 cells assessed as cell growth inhibition measured after 24 hrs by MTT assay; assay type: functional, cell-based; details: HT-29, 24 h
structure (smiles),measurement,setting,value
O=C1CCC(=O)N1c1ccc(O)cc1,IC50 at 48 h,[1],1.32 µM
same,IC50,[2],1.74 µM
same,IC50,[3],1.03 µM
OC(CN1CCCCC1)Cn1c2ccc(Cl)cc2c2cc(Cl)ccc21 (configuration not stated),IC50,[4],6 µM
same,IC50,[5],6 µM
same,IC50,[6],6 µM
CCn1c2ccccc2c2cc(NC(=O)CCN3CCCC3)ccc21,Activity,[7],61%
same,Activity,[8],66%
O=C(/C=C/c1ccc(O)cc1)N1CCCC1,IC50,[9],11.3 µg/mL
CCCCNCC(O)Cn1c2ccc(Cl)cc2c2cc(Cl)ccc21 (configuration not stated),IC50,[4],6 µM
same,IC50,[5],7.5 µM
same,IC50,[6],6.5 µM
O=C1Nc2ccccc2C12CCNC2c1ccccc1 (configuration not stated),inhibition at 50 µM,[10],25.2%
same,inhibition at 50 µM,[11],0.51%
COc1ccc([C@@H]2[C@H]([N+](=O)[O-])[C@H](Cc3ccc(O)cc3)NC23C(=O)c2cccc4cccc3c24)cc1 (some centres not stated),IC50,[12],96.5 µM
CCOC(=O)[C@H]1CCCN1C(=O)Cc1noc2ccccc12,IC50,[13],361 µM
O=C1C2=CC=CC3C=CC=C(C23)C12N[C@@H](Cc1ccc(O)cc1)[C@@H]([N+](=O)[O-])[C@H]2c1ccc(Br)cc1 (some centres not stated),IC50,[14],33.1 µM
same,IC50,[12],65.7 µM
N#C[C@@H]1CCCN1C(=O)Cc1noc2ccccc12,IC50,[15],2.36 µM
same,IC50,[13],90.3 µM
Cc1ccc(C2CC(c3ccc(F)cc3)=NN2C(=O)CN2C(=O)CCC2=O)cc1 (configuration not stated),IC50,[16],0.07 µM
same,IC50,[3],0.92 µM
same,IC50,[17],47.2 µM
same,inhibition in vivo at 50 mg/kg,[18],66%
same,inhibition in vivo at 50 mg/kg,[19],60%
NC(=O)[C@@H]1CCCN1C(=O)Cc1noc2ccccc12,IC50,[15],4.39 µM
same,IC50,[13],4.72 µM
O=C1/C(=C/c2cccc(F)c2)CCC[C@]12[C@@H](c1cccc(F)c1)[C@@H]1CSCN1[C@]21C(=O)Nc2ccccc21,IC50,[20],15.7 µM
same,IC50,[21],15.3 µM
O=C1C2=CC=CC3C=CC=C(C23)C12N[C@@H](Cc1ccc(O)cc1)[C@@H]([N+](=O)[O-])[C@H]2c1ccc(Cl)cc1 (some centres not stated),IC50,[14],33.6 µM
same,IC50,[12],40.2 µM
Oc1cc2c(cc1C1CCCCC1)OCO2,IC50,[22],14.7 µM
same,IC50 at 24 h,[23],> 100 µM
same,Activity,[24],25%
O=C1CCC(=O)N1CN(Cc1ccccc1)Cc1ccccc1,viability at 50 µg/mL,[25],78.8%
same,viability at 100 µg/mL,[26],72%
same,IC50,[27],176 µg/mL
O=C(/C=C/c1ccc(O)c(O)c1)N1CCCC1,IC50,[9],53.5 µg/mL
CC[C@H](C)[C@H](NC(=O)OC(C(F)(F)F)C(F)(F)F)C(=O)N[C@@H](CC(C)C)C(=O)N1CCCC1C(=O)N[C@@H](CC(C)C)C(=O)N[C@H](C(=O)OC)C(C)C (some centres not stated) (X1-IL[ξP]LV-OMe),IC50,[28],2.73 µM
CC[C@H](C)[C@@H](CN[C@@H](Cc1ccccc1)C(=O)OC)NC(=O)[C@@H]1CCCN1C(=O)[C@H](CC(C)C)NC(=O)[C@@H]1CCCN1C(=O)[C@H](CC(C)C)NC(=O)OC(C(F)(F)F)C(F)(F)F (X1-LPLP-X2),IC50,[28],4.3 µM
COc1cccc2c1C(=O)c1c(O)c3c(c(O)c1C2=O)C[C@@](O)(C(=O)CO)C[C@@H]3O[C@H]1C[C@H](N)[C@H](O)[C@H](C)O1 [DOXORUBICIN],IC50,[29],4.89 µM
same,IC50,[30],5.59 µM
same,IC50,[31],7.03 µM
O=c1[nH]cc(F)c(=O)[nH]1 [FLUOROURACIL],IC50,[15],45 µM
same,IC50,[16],45 µM
same,IC50,[21],78.3 µM
same,IC50,[32],80.6 µM
